Measurements: the supplement of paper PMC10307832

Legend:
Assay in all cases: relative viability (nuclei count vs DMSO), 5 days (fraction); higher = more cells survive
[1] = compound: C[As](C)SC[C@H](NC(=O)CC[C@H](N)C(=O)O)C(=O)NCC(=O)O [Darinaparsin] + C[C@]1(O)C[C@@H](c2nc(-c3ccc4ccc(-c5ccccc5)nc4c3)c3c(N)nccn32)C1 [Linsitinib] (partner 1 µM)
Outline: (§1)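 Each reported value is a median over duplicate plates. It expresses relative viability: treated-well nuclei count divided by vehicle-well nuclei count. Lung cancer cell lines in 1536-well plates were dosed by pin tool a day after seeding, alone with one drug or with a fixed anchor-drug dose plus five library-drug doses (not always all listed) in √10 steps, and nuclei were counted after 5 days.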

QS11 + Foretinib = compound: C1CC2=C(C1)C=C(C=C2)OC3=NC(=C4C(=N3)N(C=N4)CC5=CC=C(C=C5)C6=CC=CC=C6)N[C@@H](CC7=CC=CC=C7)CO [QS11] + COc1cc2c(Oc3ccc(NC(=O)C4(C(=O)Nc5ccc(F)cc5)CC4)cc3F)ccnc2cc1OCCCN1CCOCC1 [Foretinib] (partner 0.25 µM)
Outline: as §1

QS11 + OSI-027 = compound: C1CC2=C(C1)C=C(C=C2)OC3=NC(=C4C(=N3)N(C=N4)CC5=CC=C(C=C5)C6=CC=CC=C6)N[C@@H](CC7=CC=CC=C7)CO [QS11] + COc1cccc2cc(-c3nc([C@H]4CC[C@H](C(=O)O)CC4)n4ncnc(N)c34)[nH]c12 [OSI-027] (partner 0.5 µM)
Outline: as §1

QS11 + Trametinib = compound: C1CC2=C(C1)C=C(C=C2)OC3=NC(=C4C(=N3)N(C=N4)CC5=CC=C(C=C5)C6=CC=CC=C6)N[C@@H](CC7=CC=CC=C7)CO [QS11] + CC(=O)Nc1cccc(-n2c(=O)n(C3CC3)c(=O)c3c(Nc4ccc(I)cc4F)n(C)c(=O)c(C)c32)c1 [Trametinib] (partner 0.02 µM)
Outline: as §1

Cell Line	relative viability ([1]; first compound 0.08 µM)	relative viability ([1]; first compound 0.8 µM)	relative viability ([1]; first compound 2.53 µM)	relative viability ([1]; first compound 8 µM)	relative viability (QS11 + Foretinib; first compound 0.08 µM)	relative viability (QS11 + Foretinib; first compound 0.253 µM)	relative viability (QS11 + Foretinib; first compound 0.8 µM)	relative viability (QS11 + Foretinib; first compound 2.53 µM)	relative viability (QS11 + Foretinib; first compound 8 µM)	relative viability (QS11 + OSI-027; first compound 0.08 µM)	relative viability (QS11 + OSI-027; first compound 0.253 µM)	relative viability (QS11 + OSI-027; first compound 0.8 µM)	relative viability (QS11 + OSI-027; first compound 2.53 µM)	relative viability (QS11 + OSI-027; first compound 8 µM)	relative viability (QS11 + Trametinib; first compound 0.08 µM)	relative viability (QS11 + Trametinib; first compound 0.253 µM)	relative viability (QS11 + Trametinib; first compound 0.8 µM)	relative viability (QS11 + Trametinib; first compound 2.53 µM)	relative viability (QS11 + Trametinib; first compound 8 µM)
NCI-H1975	1.11	1.01	0.944	1.26	1.02	1.02	1.04	1.32	1.35	0.737	0.674	0.741	0.659	0.805	0.329	0.246	0.328	0.424	0.327
BEN	0.947	1.02	0.764	1.11	0.47	0.616	0.814	0.691	0.701	0.304	0.316	0.309	0.33	0.3	1.06	1.11	1.08	1.12	1.11
NCI-H1437	1.52	1.14	0.888	1.29	1.31	1.23	0.973	1.17	1.12	0.95	0.946	0.77	0.834	0.827	0.551	0.561	0.474	0.477	0.499
NCI-H1734	1.23	0.917	0.674	0.932	0.842	0.932	0.91	0.772	0.713	0.66	0.548	0.594	0.517	0.49	0.645	0.626	0.648	0.546	0.565
NCI-H596	1.3	0.934	0.928	1.27	0.979	0.743	0.924	0.841	0.97	0.715	0.688	0.679	0.66	0.732	0.776	0.755	0.692	0.683	0.706
LOU-NH91	0.962	0.92	0.952	0.946	0.854	0.926	0.904	0.875	0.94	0.678	0.722	0.693	0.728	0.71	0.797	0.742	0.743	0.819	0.767
NCI-H2342					1.02	1.07	1.07	1.02	1.19	0.643	0.703	0.611	0.663	0.636	0.775	0.769	0.838	0.88	0.743
NCI-H522										0.733	0.795	0.722	0.727	1.97	0.795	0.791	0.675	0.799	0.943
SK-MES-1	1.15	0.99	0.812	1.25	0.985	0.783	0.918	0.605	0.778	0.627	0.575	0.544	0.615	0.623	0.519	0.557	0.451	0.507	0.527
UMC-11	1.04	1.07	0.862	1.32	1.13	1.1	1.07	1.32	1.06	0.474	0.481	0.501	0.492	0.57	0.603	0.548	0.618	0.775	0.898
LK-2	0.486	0.459	0.658	0.637	1.13	1.38	1.41	1.13	1.09	0.181	0.238	0.188	0.212	0.22	0.702	1.03	0.778	0.81	0.841
CAL-12T	1.08	0.757	0.686	0.956	1.04	1.1	0.98	1.06	0.939	0.656	0.457	0.498	0.385	0.407	0.313	0.328	0.355	0.367	0.358
PC-3 [JPC-3]	0.961	0.955	1.06	1.05	0.972	1.07	0.991	1.03	0.982	0.794	0.743	0.371	0.718	0.739		0.712	0.674	0.641	0.568
NCI-H1651	1.21	1.08	0.938	1.13	0.787	0.901	0.822	0.671	0.698	0.618	0.645	0.733	0.625	0.662	0.855	0.887	0.761	0.856	0.922
NCI-H650	1.26	0.9	0.801	0.871	1	1.11	0.994	0.924	1.02	0.513	0.513	0.548	0.483	0.456	0.825	0.934	1.06	0.959	0.983
HOP-62	1.25	0.94	0.899	1.02	1.11	1.33	0.766	0.742	0.708	0.879	0.845	0.811	0.65	0.837	0.373	0.393	0.38	0.357	0.42
LC-2-ad	0.98	0.808	0.812	0.843	0.921	0.924	0.839	1.04	0.889	0.783	0.413	0.873	0.847	0.79	0.906	0.985	0.606	0.843	0.962
EPLC-272H	1.2	1.31	0.956	1.17		0.817	0.64	0.677	0.692		0.287	0.253	0.259	0.26		0.32	0.3	0.28	0.3

Cell Line	relative viability ([1]; first compound 0.08 µM)	relative viability ([1]; first compound 0.8 µM)	relative viability ([1]; first compound 2.53 µM)	relative viability ([1]; first compound 8 µM)	relative viability (QS11 + Foretinib; first compound 0.08 µM)	relative viability (QS11 + Foretinib; first compound 0.253 µM)	relative viability (QS11 + Foretinib; first compound 0.8 µM)	relative viability (QS11 + Foretinib; first compound 2.53 µM)	relative viability (QS11 + Foretinib; first compound 8 µM)	relative viability (QS11 + OSI-027; first compound 0.08 µM)	relative viability (QS11 + OSI-027; first compound 0.253 µM)	relative viability (QS11 + OSI-027; first compound 0.8 µM)	relative viability (QS11 + OSI-027; first compound 2.53 µM)	relative viability (QS11 + OSI-027; first compound 8 µM)	relative viability (QS11 + Trametinib; first compound 0.08 µM)	relative viability (QS11 + Trametinib; first compound 0.253 µM)	relative viability (QS11 + Trametinib; first compound 0.8 µM)	relative viability (QS11 + Trametinib; first compound 2.53 µM)	relative viability (QS11 + Trametinib; first compound 8 µM)
SW 900					0.981	0.875	0.844	0.774	0.8	0.547	0.601	0.661	0.487	0.423	0.797	0.724	0.724	0.721	0.453
EBC-1	1.12	0.942	0.864	1.15	0.0939	0.0918	0.115	0.11	0.144										
HCC-44	0.841	0.636	0.441	0.86						0.606	0.531	0.512	0.593	0.378	1.19	0.908	0.599	1.02	1.02
NCI-H441	0.755	0.506	0.497	0.47	1.01	1.19	0.97	0.775	0.746	0.614	0.619	0.76	0.566	0.548	0.59	0.424	0.545	0.56	0.486
NCI-H1299	1.1	1	0.912	1.2	1.14	1.11	0.956	1.04	0.948										
A549	0.756	0.612	0.389	0.632	0.911	0.883	0.697	0.918	0.917										
IA-LM	0.949	0.8	0.533	0.681	1.22	1.15		1.12	0.969										
Calu-6	1.06	1.06	0.815	1.05	1.04	0.93	0.897	0.953	0.998										
NCI-H1648											0.26		0.275	0.247	0.603	0.535	0.423	0.557	0.486
NCI-H1650					1	1.25	0.799	1.14	1.19	0.58	0.549	0.642	0.547	0.396	0.459	0.667	0.366	0.751	0.552
NCI-H1623					0.807	0.829	0.751	0.775	1.01	0.417	0.386	0.415	0.445	0.426					
NCI-H1703	1.42	0.774	0.797	0.799	0.306	0.309	0.333	0.422	0.322										
ChaGo-K-1					0.816	0.967	0.971	0.99	0.895	0.358	0.666	0.749	0.659	0.569		0.984	0.972	0.886	0.931
ABC-1	0.801	0.849	0.735	1.04	0.912	1.06	1.06	1.08	1.32	0.477	0.348	0.519	0.492	0.457					
NCI-H1563	1.23	1.14	1.21	1.3	0.971	0.876	1.06	1.07	0.916	0.67	0.775	0.741	0.745	0.693					
NCI-H2170					1.02	0.987	0.77	1.06	1.06	0.691	0.692	0.703	0.8	0.743	0.93	0.962	0.728	1.01	1.04
NCI-H1792	0.571	0.488	0.402	0.536						0.731	0.969	0.65	0.565	0.82		0.514	0.39	0.312	0.306
